Data on 18 compounds can be found in US20230257372A1 (CHONG KUN DANG PHARMACEUTICAL CORP., priority 2020, published 2023).

One assay concerns the target T1, human recombinant HDAC6 (Homo sapiens, UniProt Q9UBN7).
T1 construct: purchased Calbiochem Inc. 382180
T1 sequence (Q9UBN7 1-1215): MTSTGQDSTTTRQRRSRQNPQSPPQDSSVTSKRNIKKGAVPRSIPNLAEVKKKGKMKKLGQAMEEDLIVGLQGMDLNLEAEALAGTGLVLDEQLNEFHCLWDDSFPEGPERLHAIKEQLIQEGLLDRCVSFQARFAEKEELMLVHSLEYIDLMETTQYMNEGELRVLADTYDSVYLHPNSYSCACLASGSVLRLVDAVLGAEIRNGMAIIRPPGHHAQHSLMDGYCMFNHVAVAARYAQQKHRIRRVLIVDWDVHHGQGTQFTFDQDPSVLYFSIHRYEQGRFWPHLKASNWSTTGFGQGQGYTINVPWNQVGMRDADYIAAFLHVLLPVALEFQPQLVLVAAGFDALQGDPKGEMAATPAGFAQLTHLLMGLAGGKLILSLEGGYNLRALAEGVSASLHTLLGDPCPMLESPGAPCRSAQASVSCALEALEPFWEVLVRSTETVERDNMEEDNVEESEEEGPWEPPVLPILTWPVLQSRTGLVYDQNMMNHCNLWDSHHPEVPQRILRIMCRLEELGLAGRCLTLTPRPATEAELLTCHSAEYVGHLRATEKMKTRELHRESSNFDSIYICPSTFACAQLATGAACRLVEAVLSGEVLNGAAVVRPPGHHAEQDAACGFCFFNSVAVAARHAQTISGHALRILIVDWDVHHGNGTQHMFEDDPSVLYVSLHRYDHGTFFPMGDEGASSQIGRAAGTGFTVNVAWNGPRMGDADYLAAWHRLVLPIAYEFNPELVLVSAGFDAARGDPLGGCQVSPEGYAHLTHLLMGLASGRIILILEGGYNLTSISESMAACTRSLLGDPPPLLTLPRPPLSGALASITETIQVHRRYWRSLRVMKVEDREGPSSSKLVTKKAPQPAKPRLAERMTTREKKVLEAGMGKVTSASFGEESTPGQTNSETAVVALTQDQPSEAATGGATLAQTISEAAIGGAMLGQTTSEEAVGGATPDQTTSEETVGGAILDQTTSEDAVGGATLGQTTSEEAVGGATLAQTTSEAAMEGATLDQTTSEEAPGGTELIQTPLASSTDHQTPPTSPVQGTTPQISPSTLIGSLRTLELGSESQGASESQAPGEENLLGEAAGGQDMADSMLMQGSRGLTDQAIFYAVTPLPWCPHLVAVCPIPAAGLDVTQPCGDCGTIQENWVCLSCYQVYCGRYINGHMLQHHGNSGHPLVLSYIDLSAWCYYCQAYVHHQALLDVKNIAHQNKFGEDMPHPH
The assay can be described thus: HDAC6 enzyme activity inhibition (HDAC Fluorimetric Drug Discovery Kit). The assay is classed as biochemical. Put shortly: (§1)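 Each isoform is run in the same format: compound dilutions (5-fold steps), 10 μM substrate, […] enzyme, one hour at 30° C, then 30 minutes with developer before fluorescence readout.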

In another assay the target is T2, human recombinant HDAC1 (Homo sapiens, UniProt Q13547).
T2 construct: purchased Enzo Life Science, Inc. BML-SE456
Briefly: HDAC1 enzyme activity inhibition (HDAC Fluorimetric Drug Discovery Kit). As to conditions: read-out: HDAC1. The assay is classed as biochemical. The method, boiled down: as §1

The mark [1] stands for this setting: human recombinant HDAC6, same protocol as HDAC1.
Setting [2] is: human recombinant HDAC1, Fluor de Lys substrate, 30° C. 60 minutes.
Setting [3] is: human recombinant HDAC6, IC50 calculated with GraphPad Prism.
The mark [4] stands for this setting: human recombinant HDAC1, IC50 calculated with GraphPad Prism.

pIC50: −log10 of the molar value. Read-outs that look alike come from different tables or passages of the source.

T2 sequence (Q13547 whole entry): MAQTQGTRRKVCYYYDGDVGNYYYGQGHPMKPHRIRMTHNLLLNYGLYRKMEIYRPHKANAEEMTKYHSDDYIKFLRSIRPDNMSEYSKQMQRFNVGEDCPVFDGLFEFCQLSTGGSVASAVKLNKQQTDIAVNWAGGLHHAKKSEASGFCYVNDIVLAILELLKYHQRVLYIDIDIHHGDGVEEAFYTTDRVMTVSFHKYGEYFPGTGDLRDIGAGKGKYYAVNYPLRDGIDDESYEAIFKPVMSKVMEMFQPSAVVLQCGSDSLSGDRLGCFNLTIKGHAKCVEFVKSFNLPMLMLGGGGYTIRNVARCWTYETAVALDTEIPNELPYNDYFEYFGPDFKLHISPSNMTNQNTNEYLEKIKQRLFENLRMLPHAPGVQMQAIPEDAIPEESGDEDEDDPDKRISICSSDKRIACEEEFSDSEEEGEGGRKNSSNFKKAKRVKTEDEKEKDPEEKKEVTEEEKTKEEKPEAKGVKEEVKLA

Turning to `Fc1cc(-c2nnc(C(F)F)o2)ccc1Cn1cc(-c2csc(CN3CCC3)c2)nn1` [Compound 18178, 2-(4-((4-(5-(azetidin-1-ylmethyl)thiophen-3-yl)-1H-1,2,3-triazol-1-yl)methyl)-3-fluorophenyl)-5-(difluoromethyl)-1,3,4-oxadiazole], at human recombinant HDAC6 (HDAC6 over HDAC1), the “HDAC6 selectivity (fold)” value is given as 657 fold. Further, the values for the pIC50 on human recombinant HDAC6 (setting [1]) and on human recombinant HDAC1 (setting [2]) were 7.12 and below 4.30, respectively.
On to `FC(F)c1nnc(-c2ccc(Cn3cc(-c4cccc(C5CN(C6COC6)C5)c4)nn3)cc2)o1` [Compound 4511, 2-(difluoromethyl)-5-(4-((4-(3-(1-(oxetan-3-yl)azetidin-3-yl)phenyl)-1H-1,2,3-triazol-1-yl)methyl)phenyl)-1,3,4-oxadiazole], for which the “HDAC6 selectivity (fold)” value at human recombinant HDAC6 (HDAC6 over HDAC1) amounted to 325 fold. Further, the values for the pIC50 at human recombinant HDAC6 (setting [1]) and on human recombinant HDAC1 (setting [2]) were 7.19 and below 4.30, respectively.
Taken in the same sequence, the figures for `CN1Cc2ccc(-c3cn(Cc4ccc(-c5nnc(C(F)F)o5)cc4)nn3)cc2C1` [Compound 4513, 2-(difluoromethyl)-5-(4-((4-(2-methylisoindolin-5-yl)-1H-1,2,3-triazol-1-yl)methyl)phenyl)-1,3,4-oxadiazole] were 495 fold, 7.00 and below 4.30.
With `CC(C)(C)OC(=O)N1CCC(c2cccc(-c3cn(Cc4ccc(-c5nnc(C(F)F)o5)cn4)nn3)c2)CC1` [Compound 4001, tert-butyl 4-(3-(1-((5-(5-(difluoromethyl)-1,3,4-oxadiazol-2-yl)pyridin-2-yl)methyl)-1H-1,2,3-triazol-4-yl)phenyl)piperidin-1-carboxylate], the “HDAC6 selectivity (fold)” value on human recombinant HDAC6 (HDAC1 IC50 / HDAC6 IC50) was 296 fold. For the same compound, the figures for the pIC50 on human recombinant HDAC6 (setting [3]) and at human recombinant HDAC1 (setting [4]) were 6.77 and below 4.30, respectively.
Regarding `Fc1cc(-c2nnc(C(F)F)o2)ccc1Cn1cc(-c2ccccc2CN2CCC2)nn1` [Compound 4583, 2-(4-((4-(2-(azetidin-1-ylmethyl)phenyl)-1H-1,2,3-triazol-1-yl)methyl)-3-fluorophenyl)-5-(difluoromethyl)-1,3,4-oxadiazole], the “HDAC6 selectivity (fold)” value at human recombinant HDAC6 (HDAC6 over HDAC1) was 138 fold. Besides, the pIC50 at human recombinant HDAC6 (setting [1]) is 6.44; at human recombinant HDAC1 (setting [2]), below 4.30.
The like results for `FC(F)c1nnc(-c2ccc(Cn3cc(-c4cccc5c4CN(C4CCC4)C5)nn3)nc2)o1` [Compound 4598, 2-(6-((4-(2-cyclobutylisoindolin-4-yl)-1H-1,2,3-triazol-1-yl)methyl)pyridin-3-yl)-5-(difluoromethyl)-1,3,4-oxadiazole] were, in that order, 1108 fold, 7.35 and below 4.30.
`FC(F)c1nnc(-c2ccc(Cn3cc(-c4ccc(CN5CCC5)cc4)nn3)cc2)o1` [Compound 4548, 2-(4-((4-(4-(azetidin-1-ylmethyl)phenyl)-1H-1,2,3-triazol-1-yl)methyl)phenyl)-5-(difluoromethyl)-1,3,4-oxadiazole]: on human recombinant HDAC6 (HDAC6 over HDAC1), the “HDAC6 selectivity (fold)” value was 4545 fold. The pIC50 was 7.88 at human recombinant HDAC6 (setting [1]) and below 4.30 at human recombinant HDAC1 (setting [2]).
`O=C(O)c1cccc(-c2cn(Cc3ccc(-c4nnc(C(F)F)o4)cc3)nn2)c1` [Compound 3659, 3-(1-(4-(5-(difluoromethyl)-1,3,4-oxadiazol-2-yl)benzyl)-1H-1,2,3-triazol-4-yl)benzoic acid]: the “HDAC6 selectivity (fold)” value at human recombinant HDAC6 (HDAC1 IC50 / HDAC6 IC50) came to 122 fold. For the same compound, the pIC50 was 6.39 on human recombinant HDAC6 (setting [3]) and below 4.30 on human recombinant HDAC1 (setting [4]).
For the compound `FC(F)c1nnc(-c2ccc(Cn3cc(-c4cccc(C5CN(C6CCC6)C5)c4)nn3)nc2)o1` [Compound 4504, 2-(6-((4-(3-(1-cyclobutylazetidin-3-yl)phenyl)-1H-1,2,3-triazol-1-yl)methyl)pyridin-3-yl)-5-(difluoromethyl)-1,3,4-oxadiazole], the “HDAC6 selectivity (fold)” value at human recombinant HDAC6 (HDAC6 over HDAC1) is 3703 fold. The pIC50 at human recombinant HDAC6 (setting [1]) is 7.87; on human recombinant HDAC1 (setting [2]) it was below 4.30.
On to `Fc1cc(-c2nnc(C(F)F)o2)ccc1Cn1cc(-c2ccc(F)c(N3CCNCC3)c2)nn1` [Compound 4397, 2-(difluoromethyl)-5-(3-fluoro-4-((4-(4-fluoro-3-(piperazin-1-yl)phenyl)-1H-1,2,3-triazol-1-yl)methyl)phenyl)-1,3,4-oxadiazole], for which the “HDAC6 selectivity (fold)” value on human recombinant HDAC6 (HDAC1 IC50 / HDAC6 IC50) came to 766 fold. Besides, the pIC50 on human recombinant HDAC6 (setting [3]) was 7.19; on human recombinant HDAC1 (setting [4]), below 4.30.
Taken in the same sequence, the figures for `CC(C)N1CCN(c2cc(-c3cn(Cc4ccc(-c5nnc(C(F)F)o5)cc4)nn3)ccc2F)CC1` [Compound 4421, 2-(difluoromethyl)-5-(4-((4-(4-fluoro-3-(4-isopropylpiperazin-1-yl)phenyl)-1H-1,2,3-triazol-1-yl)methyl)phenyl)-1,3,4-oxadiazole] were 202 fold, 6.61 and below 4.30.
With `Fc1cc(-c2nnc(C(F)F)o2)cnc1Cn1cc(-c2cc(Cl)cc(CN3CCCC3)c2)nn1` [Compound 19092, 2-(6-((4-(3-chloro-5-(pyrrolidin-1-ylmethyl)phenyl)-1H-1,2,3-triazol-1-yl)methyl)-5-fluoropyridin-3-yl)-5-(difluoromethyl)-1,3,4-oxadiazole], on human recombinant HDAC6 (HDAC6 over HDAC1), the “HDAC6 selectivity (fold)” value was determined as 541 fold. The pIC50 at human recombinant HDAC6 (setting [1]) is 7.03; on human recombinant HDAC1 (setting [2]), below 4.30.
Consider `CN1CC(N2CCC(c3cccc(-c4cn(Cc5ncc(-c6nnc(C(F)F)o6)cc5F)nn4)c3)CC2)C1` [Compound 18877, 2-(difluoromethyl)-5-(5-fluoro-6-((4-(3-(1-(1-methylazetidin-3-yl)piperidin-4-yl)phenyl)-1H-1,2,3-triazol-1-yl)methyl)pyridin-3-yl)-1,3,4-oxadiazole], for which, on human recombinant HDAC6 (HDAC6 over HDAC1), the “HDAC6 selectivity (fold)” value turned out to be 367 fold. For the same compound, the pIC50 on human recombinant HDAC6 (setting [1]) was 6.87; on human recombinant HDAC1 (setting [2]), below 4.30.
`FC(F)c1nnc(-c2ccc(Cn3cc([C@@H]4CCCN4C4COC4)nn3)nc2)o1` [Compound 4026, (S)-2-(difluoromethyl)-5-(6-((4-(1-(oxetan-3-yl)pyrrolidin-2-yl)-1H-1,2,3-triazol-1-yl)methyl)pyridin-3-yl)-1,3,4-oxadiazole]: at human recombinant HDAC6 (HDAC1 IC50 / HDAC6 IC50), the “HDAC6 selectivity (fold)” value is 189 fold. In addition, the pIC50 is 6.58 at human recombinant HDAC6 (setting [3]) and below 4.30 on human recombinant HDAC1 (setting [4]).
Consider `Fc1cc(-c2nnc(C(F)F)o2)ccc1Cn1cc(-c2ccc(CN3CC4(COC4)C3)cc2)nn1` [Compound 4523, 6-(4-(1-(4-(5-(difluoromethyl)-1,3,4-oxadiazol-2-yl)-2-fluorobenzyl)-1H-1,2,3-triazol-4-yl)benzyl)-2-oxa-6-azaspiro[3.3]heptane], for which the “HDAC6 selectivity (fold)” value on human recombinant HDAC6 (HDAC6 over HDAC1) was 4504 fold. The pIC50 at human recombinant HDAC6 (setting [1]) is 7.95; on human recombinant HDAC1 (setting [2]), below 4.30.
Taken in the same sequence, the figures for `Fc1cc(-c2nnc(C(F)F)o2)cnc1Cn1cc(-c2cccc(C3CCN(C4CN(C5CCC5)C4)CC3)c2)nn1` [Compound 18878] were 429 fold, 6.93 and below 4.30.
Taken in the same sequence, the figures for `CC(C)N1Cc2cccc(-c3cn(Cc4ccc(-c5nnc(C(F)F)o5)cc4F)nn3)c2C1` [Compound 4536, 2-(difluoromethyl)-5-(3-fluoro-4-((4-(2-isopropylisoindolin-4-yl)-1H-1,2,3-triazol-1-yl)methyl)phenyl)-1,3,4-oxadiazole] were 572 fold, 7.06 and below 4.30.
Turning to `Fc1cc(-c2nnc(C(F)F)o2)ccc1Cn1cc(-c2cccc(N3CCN(C4CCC4)CC3)c2)nn1` [Compound 4376, 2-(4-((4-(3-(4-cyclobutylpiperazin-1-yl)phenyl)-1H-1,2,3-triazol-1-yl)methyl)-3-fluorophenyl)-5-(difluoromethyl)-1,3,4-oxadiazole], at human recombinant HDAC6 (HDAC1 IC50 / HDAC6 IC50), the “HDAC6 selectivity (fold)” value stood at 1094 fold. Besides, the pIC50 on human recombinant HDAC6 (setting [3]) was 7.34; on human recombinant HDAC1 (setting [4]), below 4.30.
